Results as given in publication PMC4389225, “Triaminopyrimidine is a fast-killing and long-acting antimalarial clinical candidate” (Nature Communications, 2015).
Values after ≈ are worked out from the molar mass of the structure shown.

What was measured:
hERG = target: T1, hERG (Homo sapiens, UniProt Q12809); experiment: electrophysiology-based hERG assay using IonWorks HT (CHO cells); format: cell-based; details: hERG IC50
T1 construct: expressed in transfected cells; host or cells: CHO cells
Method: hERG IC50 was determined in an electrophysiology-based hERG assay using IonWorks HT (CHO cells) as described earlier.

[1] = test system: asexual blood stage of Pf; experiment: Pf asexual blood stage potency (Pf IC50); format: cell-based, Plasmodium falciparum; details: Plasmodium falciparum
Excerpt: The TAPs series emerged from a high-throughput screen (HTS) of 500,000 compounds from the AstraZeneca corporate library against the asexual blood stage of Pf using a high-content image-based approach. The procedure for synthesis of compounds 1-6, 10, 11 using a scheme similar to Fig. 1 is provided in Supplementary Note 1. The initial hit provided multiple diversification points for a robust lead optimization campaign. […] Compounds with 2-pyridyl modification at the 2-amino position of pyrimidine core improved potency and solubility at the cost of potent activity against hERG and acetylcholine esterase (AChE; compounds 3-6; Table 1). […] The observed hERG and AChE selectivity improvement with 7 could be attributed to the polar nature of the pyrazole group and its role in reducing the pKa of the core pyrimidine ring. […] To assess the potential for cross-resistance, representative TAPs were screened against a panel of clinical isolates and in vitro-generated mutant strains displaying varying mechanisms of resistance to antimalarial agents currently in use and under development, respectively, (Supplementary Tables 1–3).

T1 sequence (Q12809 whole entry): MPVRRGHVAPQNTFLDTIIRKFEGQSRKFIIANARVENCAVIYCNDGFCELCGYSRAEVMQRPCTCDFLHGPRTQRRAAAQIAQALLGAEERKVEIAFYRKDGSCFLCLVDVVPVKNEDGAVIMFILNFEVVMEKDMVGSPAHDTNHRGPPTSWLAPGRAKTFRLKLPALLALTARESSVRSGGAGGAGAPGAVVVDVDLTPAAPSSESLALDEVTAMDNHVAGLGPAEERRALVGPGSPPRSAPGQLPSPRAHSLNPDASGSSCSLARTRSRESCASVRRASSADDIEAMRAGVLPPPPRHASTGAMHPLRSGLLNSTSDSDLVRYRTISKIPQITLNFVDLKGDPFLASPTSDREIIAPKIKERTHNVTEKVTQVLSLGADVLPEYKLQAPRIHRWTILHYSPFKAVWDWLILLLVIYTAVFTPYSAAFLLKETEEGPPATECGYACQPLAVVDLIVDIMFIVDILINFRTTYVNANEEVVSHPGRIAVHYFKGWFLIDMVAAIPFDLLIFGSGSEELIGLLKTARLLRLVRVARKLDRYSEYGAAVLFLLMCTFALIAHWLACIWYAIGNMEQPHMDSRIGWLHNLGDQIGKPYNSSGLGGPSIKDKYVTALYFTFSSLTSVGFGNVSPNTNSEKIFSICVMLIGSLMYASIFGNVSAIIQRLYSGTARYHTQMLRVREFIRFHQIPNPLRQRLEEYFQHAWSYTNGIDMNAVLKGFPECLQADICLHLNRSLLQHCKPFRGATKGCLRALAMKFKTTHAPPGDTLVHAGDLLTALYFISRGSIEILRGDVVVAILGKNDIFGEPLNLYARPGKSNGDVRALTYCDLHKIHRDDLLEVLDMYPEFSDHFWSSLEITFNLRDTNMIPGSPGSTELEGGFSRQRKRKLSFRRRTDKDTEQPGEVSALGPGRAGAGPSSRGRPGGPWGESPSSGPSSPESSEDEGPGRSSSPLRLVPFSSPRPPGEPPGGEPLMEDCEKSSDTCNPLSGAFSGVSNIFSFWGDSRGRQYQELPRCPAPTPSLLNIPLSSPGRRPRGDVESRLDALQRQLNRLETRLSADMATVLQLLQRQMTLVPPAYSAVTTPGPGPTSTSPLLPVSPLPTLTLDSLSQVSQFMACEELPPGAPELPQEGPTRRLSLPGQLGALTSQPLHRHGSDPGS

CCc1ccc(Nc2ncc(N3CCN(C)CC3)c(N3CCCC3)n2)cc1 [compound 1]
IC50 (hERG): 3700 nM
solubility (Solubility): 10 µM (≈ 3.67 µg/mL)
IC50 [1]: 150 nM
